Format in all cases: biochemical
One test addresses subtilisin (Sub) (Bacillus licheniformis, UniProt P00780). Nature of the test: Inhibitory activity toward subtilisin, fluorogenic substrate, microplate reader. Particulars: for Sub Kobs/[I]: 10 min pre-incubation at 37°C, pH 7,5, Me-Suc-Ala-Ala-Pro-Phe-AMC 5µM, NI = brak inhibicji (no inhibition). As to the method: (§1) The biological activity of peptidyl derivatives of phosphonic analogs of valine, alanine, phenylalanine, 4-guanidinephenylglycine, leucine, and 1-aminobutyric acid, containing the N-terminal biotin residue were tested for their ability to inhibit proteolytic activity of selected serine proteases, and the control cysteine proteases. All tests were performed using a microplate reader. As enzyme substrates fluorescent peptides were used. The method to measure the activity of the compounds obtained are described below for each of the enzymes tested: human neutrophil elastase (HNE), porcine pancreatic elastase (PPE), subtilisin (Sub), cathepsin G (CatG), proteinase 3 (PR3), chymotrypsin (ChTry) trypsin (Try), papain (Pap) and cathepsin L (CatL). Measurement of the inhibitory activity was performed at different inhibitor concentrations ranging from 12.5 nM to 2000nm.
Measurement of inhibitory activity of compounds toward subtilisin (Sub).
The inhibitory activity assay is performed at 37°C in 0,05M Tris-HCl, 1M NaCl, 0,01% Triton X-100 buffer, pH 7,5, within 10 min after initial pre-incubation of the enzyme with inhibitor tested at 37°C for 10 min. The enzyme concentration is 5nM. Substrate used Me-Suc-Ala-Ala-Pro-Phe-AMC at 5µM. Measurement is taken at an excitation wavelength of 350nm and 460nm emission.
(§2) The IC50 value is the concentration of inhibitor required to inhibit half of the enzyme activity after 10 minutes incubation.

Another test concerns the target T1, cathepsin G (CatG) (Homo sapiens, UniProt P08311).
T1 sequence (P08311 21-244): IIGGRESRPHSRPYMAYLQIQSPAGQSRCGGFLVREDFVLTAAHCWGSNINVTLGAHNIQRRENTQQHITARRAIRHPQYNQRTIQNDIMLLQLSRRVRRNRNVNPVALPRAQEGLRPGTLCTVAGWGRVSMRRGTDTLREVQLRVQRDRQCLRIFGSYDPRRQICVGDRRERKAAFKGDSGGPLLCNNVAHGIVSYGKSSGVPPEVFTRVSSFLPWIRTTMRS
Kind of test: Inhibitory activity toward cathepsin G, fluorogenic substrate, microplate reader. As to the method: as §1
Measurement of inhibitory activity of compounds toward cathepsin G (CatG).
The inhibitory activity assay is performed at 37°C in 0,1M Tric-HCl, 0,5M NaCl buffer, pH 7,5, within 10 min after initial pre-incubation of the enzyme with inhibitor tested at 37°C for 10 min. The enzyme concentration is 100nM. Substrate used MCA-Phe-Val-Thr-Gnf-Ser-Trp-Anb-NH2 at 2.5µM. Measurement is taken at an excitation wavelength of 325nm and 400nm emission.
as §2

Another test deals with T2, proteinase 3 (PR3) (Homo sapiens, UniProt P24158).
T2 sequence (P24158 28-248): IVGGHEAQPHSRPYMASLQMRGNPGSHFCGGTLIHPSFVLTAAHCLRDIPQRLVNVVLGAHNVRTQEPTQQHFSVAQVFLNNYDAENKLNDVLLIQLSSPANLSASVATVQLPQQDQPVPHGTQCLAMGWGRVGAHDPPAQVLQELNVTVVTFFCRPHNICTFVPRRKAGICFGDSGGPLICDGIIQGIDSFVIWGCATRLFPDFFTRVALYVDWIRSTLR
Nature of the test: Inhibitory activity toward proteinase 3, fluorogenic substrate, microplate reader. As to the method: as §1
Measurement of inhibitory activity of compounds toward proteinase 3(PR3).
The inhibitory activity assay is performed at 37°C in 0,1M Tric-HCl, 0,5M NaCl buffer, pH 7,5, within 10 min after initial pre-incubation of the enzyme with inhibitor tested at 37°C for 10 min. The enzyme concentration is 17nM. Substrate used Abz-Tyr-Tyr-Abu-Anb-NH2 at 30µM. Measurement is taken at an excitation wavelength of 325nm and 400nm emission.
as §2

For test [1], the target named is porcine pancreatic elastase (PPE) (Sus scrofa, UniProt P00772). Nature of the test: Inhibitory activity toward porcine pancreatic elastase, fluorogenic substrate, microplate reader. The procedure:
as §1
Measurement of inhibitory activity of compounds toward porcine pancreatic elastase (PPE).
The inhibitory activity assay is performed at 37°C in 0,01M Tris-HCl, 0,05% Triton X-100 buffer, pH 8,5, within 10 min after initial pre-incubation of the enzyme with inhibitor tested at 37°C for 10 min. The enzyme concentration is 60nM. Substrate used Me-Suc-Ala-Ala-Pro-Val-AMC at 100µM. Measurement is taken at an excitation wavelength of 350nm and 460nm emission.
as §2

Test [2] has as its target T3, human neutrophil elastase (HNE) (Homo sapiens, UniProt P08246).
T3 sequence (P08246 30-267): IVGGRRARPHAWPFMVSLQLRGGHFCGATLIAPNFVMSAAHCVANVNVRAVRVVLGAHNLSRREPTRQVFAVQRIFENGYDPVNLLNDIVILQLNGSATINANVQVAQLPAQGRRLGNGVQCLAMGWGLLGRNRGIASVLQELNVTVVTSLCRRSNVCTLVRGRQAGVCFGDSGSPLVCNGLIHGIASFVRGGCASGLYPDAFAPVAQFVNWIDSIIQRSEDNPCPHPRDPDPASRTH
Nature of the test: Inhibitory activity toward human neutrophil elastase, fluorogenic substrate, microplate reader. The procedure:
as §1
Measurement of inhibitory activity of compounds toward human neutrophil elastase (HNE).
The inhibitory activity assay is performed at 37°C in 0,01M HEPES, 0,5M NaCl, 0,03% Triton X-100 buffer, pH 7,5, within 10 min after initial pre-incubation of the enzyme with inhibitor tested at 37°C for 10 min. The enzyme concentration is 0,0025U/ml. Substrate used Me-Suc-Ala-Ala-Pro-Val-AFC at 25µM. Measurement is taken at an excitation wavelength of 400nm and 505nm emission.
as §2

The target of a further test is T4, trypsin (Try) (Bos taurus, UniProt P00760).
T4 sequence (P00760 24-246): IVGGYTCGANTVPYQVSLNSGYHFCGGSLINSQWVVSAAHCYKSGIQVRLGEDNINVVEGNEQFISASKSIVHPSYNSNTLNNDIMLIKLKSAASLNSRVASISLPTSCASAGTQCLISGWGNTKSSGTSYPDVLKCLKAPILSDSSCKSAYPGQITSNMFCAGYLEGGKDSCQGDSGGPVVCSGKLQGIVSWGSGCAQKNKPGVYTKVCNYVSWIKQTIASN
Kind of test: Inhibitory activity toward trypsin, fluorogenic substrate, microplate reader. The following applies: 10 min pre-incubation at 37°C, pH 7,5, Cbz-Arg-AFC 100µM; NI = brak inhibicji (no inhibition). The procedure:
as §1
Measurement of inhibitory activity of compounds toward trypsin (Try).
The inhibitory activity assay is performed at 37°C in 0,1M HEPES, 0,5M NaCl, 0,03% Triton X-100 buffer, pH 7,5, within 10 min after initial pre-incubation of the enzyme with inhibitor tested at 37°C for 10 min. The enzyme concentration is 25nM. Substrate used Cbz-Arg-AFC at 100µM. Measurement is taken at an excitation wavelength of 400nm and 505nm emission.
as §2

For a further test, the target named is chymotrypsin (ChTry) (Bos taurus, UniProt P00766). Nature of the test: Inhibitory activity toward chymotrypsin, fluorogenic substrate, microplate reader. Particulars: 10 min pre-incubation at 37°C, pH 7,5, Suc-Ala-Ala-Pro-Phe-AMC 5µM; NI = brak inhibicji (no inhibition). As to the method: as §1
Measurement of inhibitory activity of compounds toward […] (ChyTry).
The inhibitory activity assay is performed at 37°C in 0,1M HEPES, 0,5M NaCl buffer, pH 7,5, within 10 min after initial pre-incubation of the enzyme with inhibitor tested at 37°C for 10 min. The enzyme concentration is 3nM. Substrate used Suc-Ala-Ala-Pro-Phe-AMC at 5µM. Measurement is taken at an excitation wavelength of 350nm and 460nm emission.
as §2

[3] abbreviates: 10 min pre-incubation at 37°C, pH 7,5, MCA-Phe-Val-Thr-Gnf-Ser-Trp-Anb-NH2 2.5µM, NI = brak inhibicji (no inhibition).
The mark [4] stands for this setting: 10 min pre-incubation at 37°C, pH 7,5, Abz-Tyr-Tyr-Abu-Anb-NH2 30µM, NI = brak inhibicji (no inhibition).
Setting [5] is: read-out: PPE IC50, 10 min pre-incubation at 37°C, pH 8,5, Me-Suc-Ala-Ala-Pro-Val-AMC 100µM, NI = brak inhibicji (no inhibition).
Setting [6] is: read-out: PR3 IC50, 10 min pre-incubation at 37°C, pH 7,5, Abz-Tyr-Tyr-Abu-Anb-NH2 30µM, NI = brak inhibicji (no inhibition).
The mark [7] stands for this setting: 10 min pre-incubation at 37°C, pH 7,5, Me-Suc-Ala-Ala-Pro-Val-AFC 25µM, NI = brak inhibicji (no inhibition).

Where two headings read alike, the source gives them in different places.

porcine pancreatic elastase (PPE), sequence (P00772 27-266): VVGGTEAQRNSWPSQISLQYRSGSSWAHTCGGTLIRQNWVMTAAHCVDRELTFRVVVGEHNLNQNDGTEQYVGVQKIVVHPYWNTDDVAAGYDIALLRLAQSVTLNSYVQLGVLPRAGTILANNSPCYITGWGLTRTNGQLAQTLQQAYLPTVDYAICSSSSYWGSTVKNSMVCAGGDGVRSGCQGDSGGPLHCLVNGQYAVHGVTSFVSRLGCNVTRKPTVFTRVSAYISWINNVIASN
subtilisin (Sub), sequence (P00780 106-379): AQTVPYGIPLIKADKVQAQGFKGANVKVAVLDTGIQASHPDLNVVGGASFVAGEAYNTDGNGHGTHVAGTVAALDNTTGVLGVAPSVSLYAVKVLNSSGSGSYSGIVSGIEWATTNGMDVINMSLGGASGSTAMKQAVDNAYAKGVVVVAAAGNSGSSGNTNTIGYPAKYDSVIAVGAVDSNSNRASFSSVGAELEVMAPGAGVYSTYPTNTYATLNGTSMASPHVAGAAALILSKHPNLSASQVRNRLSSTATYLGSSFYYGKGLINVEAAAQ

Regarding `CSc1ccc(OP(=O)(Oc2ccc(SC)cc2)C(NC(=O)C(NC(=O)C(NC(=O)C(Cc2ccccc2)NC(=O)CCC(=O)NCCCCCNC(=O)CCCCC2SCC3NC(=O)NC32)C(C)C)C(C)O)c2ccc(NC(=N)N)cc2)cc1` (centres unmarked) [Compound 11, bis(4-(methylthio)phenyl) 10-benzyl-1-(4-guanidinophenyl)-4-(1-hydroxyethyl)-7-isopropyl-3,6,9,12,15,23-hexaoxo-27-(2-oxohexahydro-1H-thieno[3,4-d]imidazol-4-yl)-2,5,8,11,16,22-hexaazaheptacosylphosphonate], the IC50 was 480 ± 15.5 nM on subtilisin (Sub); 4740 ± 556 nM on cathepsin G (CatG); 603 ± 49 nM against proteinase 3 (PR3); more than 5000 nM in test [1] (setting [5]); more than 5000 nM in test [2] (read-out: HNE IC50, 10 min pre-incubation at 37°C, pH 7,5, Me-Suc-Ala-Ala-Pro-Val-AFC 25µM, NI = brak inhibicji (no inhibition)). The “Sub Kobs/[I]” value at subtilisin (Sub) is recorded as 2.4*10^3 M^-1S^-1. Moreover, the “Cat G Kobs/[I]” value on cathepsin G (CatG) (setting [3]) is on record as 2.4*10^2 M^-1S^-1. In addition, the “PR3 Kobs/[I]” value on proteinase 3 (PR3) (setting [4]) is on record as 3.8*10^3 M^-1S^-1. Moreover, at trypsin (Try), the “Try Kobs/[I]” value is reported as 2.7*10^3 M^-1S^-1.

On to `CSc1ccc(OP(=O)(Oc2ccc(SC)cc2)C(CC(C)C)NC(=O)C2CCCN2C(=O)CCCCC2SCC3NC(=O)NC32)cc1` (centres unmarked) [Compound 8, bis(4-(methylthio)phenyl) (3-methyl-1-(1-(5-(2-oxohexahydro-1H-thieno[3,4-d]imidazol-4-yl)pentanoyl)pyrrolidine-2-carboxamido)butyl)phosphonate], for which the IC50 is 11.7 ± 0.61 nM at subtilisin (Sub); 1100 ± 139 nM on cathepsin G (CatG); more than 5000 nM on proteinase 3 (PR3) (setting [6]); more than 5000 nM in test [1] (setting [5]); 3800 ± 250 nM in test [2]. Besides, the “Sub Kobs/[I]” value at subtilisin (Sub) was 9.9*10^4 M^-1S^-1. For the same compound, the “Cat G Kobs/[I]” value on cathepsin G (CatG) (setting [3]) is listed as 1.0*10^3 M^-1S^-1. The “ChyTr Kobs/[I]” value on chymotrypsin (ChTry) is given as 2.9*10^3 M^-1S^-1. The “HNE Kobs/[I]” value in test [2] (setting [7]) is 3.0*10^2 M^-1S^-1. Further, the “Try Kobs/[I]” value on trypsin (Try) is given as 1*10^3 M^-1S^-1.

Take `CSc1ccc(OP(=O)(Oc2ccc(SC)cc2)C(Cc2ccccc2)NC(=O)C2CCCN2C(=O)C(NC(=O)CCCCC2SCC3NC(=O)NC32)C(C)C)cc1` (centres unmarked) [Compound 6, bis(4-(methylthio)phenyl) (1-(1-(3-methyl-2-(5-(2-oxohexahydro-1H-thieno[3,4-d]imidazol-4-yl)pentanamido)butanoyl)pyrrolidine-2-carboxamido)-2-phenylethyl)phosphonate]: the half-inhibitory concentration (IC50) on subtilisin (Sub) was 5.6 ± 0.8 nM; against cathepsin G (CatG), 218 ± 45 nM; at proteinase 3 (PR3) (setting [6]) it was more than 5000 nM; in test [1] (setting [5]), more than 5000 nM; in test [2] it was 1.55 ± 0.05 nM. In addition, the “Cat G Kobs/[I]” value at cathepsin G (CatG) (setting [3]) was 5.3*10^3 M^-1S^-1. Further, on chymotrypsin (ChTry), the “ChyTr Kobs/[I]” value is recorded as 1.0*10^5 M^-1S^-1. Also, the “HNE Kobs/[I]” value in test [2] (setting [7]) is 2.5*10^5 M^-1S^-1. The “Try Kobs/[I]” value at trypsin (Try) was 3.7*10^2 M^-1S^-1.

As to `CCC(NC(=O)C1CCCN1C(=O)C(NC(=O)CCCCC1SCC2NC(=O)NC21)C(C)C)P(=O)(Oc1ccc(SC)cc1)Oc1ccc(SC)cc1` (centres unmarked) [Compound 13, bis(4-(methylthio)phenyl) (1-(1-(3-methyl-2-(5-(2-oxohexahydro-1H-thieno[3,4-d]imidazol-4-yl)pentanamido)butanoyl)pyrrolidine-2-carboxamido)propyl)phosphonate], the half-inhibitory concentration (IC50) at subtilisin (Sub) was 147 ± 4 nM; at cathepsin G (CatG) (read-out: Cat G IC50, 10 min pre-incubation at 37°C, pH 7,5, MCA-Phe-Val-Thr-Gnf-Ser-Trp-Anb-NH2 2.5µM, NI = brak inhibicji (no inhibition)), more than 5000 nM; on proteinase 3 (PR3), 227 ± 17 nM; in test [1], 23.5 ± 1.95 nM; in test [2], 2.75 ± 0.05 nM. The “Sub Kobs/[I]” value at subtilisin (Sub) is on record as 7.8*10^3 M^-1S^-1. Besides, at proteinase 3 (PR3) (setting [4]), the “PR3 Kobs/[I]” value was 1.0*10^4 M^-1S^-1. In addition, the “ChyTr Kobs/[I]” value at chymotrypsin (ChTry) is recorded as 1.2*10^3 M^-1S^-1. Further, the “HNE Kobs/[I]” value in test [2] (setting [7]) is reported as 4.2*10^5 M^-1S^-1. In addition, the “Try Kobs/[I]” value at trypsin (Try) was 3*10^2 M^-1S^-1.

The record behind these values is EP2676962A1, “Derivatives of 1-aminoalkylphosphonate diaryl esters, method of 1-aminoalkylphosphonate diaryl ester derivatives preparation and their application” (priority 2012, dated 2013).
